For test [1], the target named is Human Mer (residues R557-E882 with H628Q and R794A) (Homo sapiens (Human), UniProt Q12866). Put plainly: Human Mer kinase assay (33P radiometric, KinaseProfiler). Format: biochemical. The conditions noted are these: 10 μM ATP. As to the method:
(§1) Kinase activity and compound inhibition were investigated using the ^33P-Phosphoryl transfer radiometric kinase assay, performed using the KinaseProfiler™ service of Eurofins Pharma Discovery Services UK Limited. Dose-response experiments were performed using nine compound concentrations in a 96-well microtiter plate. For each assay, all compounds were prepared to a 50× final assay concentration (50 μM) in 100% DMSO, then diluted in a half-log series, with the final top concentration at 1 μM. This working stock of the compound was added to the assay well as the first component in the reaction, followed by the remaining components as detailed in the following assay protocols below. The positive control wells (100% kinase activity) contain all components of the reaction including 2% DMSO (control for solvent effects), except the compound of interest. Blank wells contain all components of the reaction, with the reference inhibitor, staurosporine. This reference compound was used to abolish kinase activity and generated the 0% kinase activity base-line. IC50 values were calculated by nonlinear regression analysis using the sigmoidal dose-response (variable slope) curve fit on XLFit version 5.3 (ID Business Solutions).
Human Mer (residues R557-E882 with H628Q and R794A, 0.7 nM) was incubated with 8 mM MOPS pH 7.0, 0.2 mM EDTA, 30 mM NaCl, 250 μM GGMEDIYFEFMGGKKK (SEO ID NO. 44). 10 mM magnesium acetate, and 10 μM [γ-^33P-ATP]. The reaction was initiated by the addition of the Mg/ATP mix. After incubation for 40 minutes at room temperature, the reaction was stopped by the addition of phosphoric acid to a concentration of 0.5%. A reaction aliquot of 10 μL was then spotted onto a P30 filtermat and washed four times for 4 minutes in 0.425% phosphoric acid and once in methanol prior to drying and scintillation counting. Incorporated ^33P was measured using the Wallac Microbeta scintillation counter (Perkin Elmer).

The target of test [2] is Human Met (residues R974-S1390 with A1209G and V1290L) (Homo sapiens, UniProt P08581). Put plainly: Human Met kinase assay (33P radiometric, KinaseProfiler). Format: biochemical. Conditions: 10 μM ATP, read-out: c-Met IC50. As to the method: as §1
Human Met (residues R974-S1390 with A1209G and V1290L, 3.4 nM) was incubated with 8 mM MOPS pH 7.0, 0.2 mM EDTA, 250 μM KKKGQEEEYVFIE (SEO ID NO. 45), 1 mM sodium orthovanadate, 5 mM […], 10 mM magnesium acetate, and 10 μM [γ-33P-ATP]. The reaction was initiated by the addition of the Mg/ATP mix. After incubation for 40 minutes at room temperature, the reaction was stopped by the addition of phosphoric acid to a concentration of 0.5%. A reaction aliquot of […] was then spotted onto a P30 filtermat and washed four times for 4 minutes in 0.425% phosphoric acid and once in methanol prior to drying and scintillation counting. Incorporated 33P was measured using the Wallac Microbeta scintillation counter (Perkin Elmer).

The next test concerns the target KDR (Homo sapiens (Human), UniProt P35968). Put plainly: KDR autophosphorylation ELISA in HUVEC cells. The conditions noted are these: cellular, VEGF165 stimulated. Format: cell-based. The gist of the method: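 HUVECs grown 24 h at 37 °C, then serum-starved 24 h, were preincubated 1 h with an 8-point compound series (0.3% DMSO) and stimulated with 100 ng/mL human VEGF165 for 5 min. Phospho-KDR in lysates was measured by sandwich ELISA against a phospho-KDR standard; IC50 from 4-parameter logistic fit.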
In general terms: An ELISA detects its analyte on a solid surface through an enzyme-linked reagent.

In a further test the target is Met (Homo sapiens (Human), UniProt P08581). Put plainly: Met autophosphorylation ELISA in PC-3 cells. Format: cell-based. The conditions noted are these: cellular, HGF stimulated, read-out: c-Met IC50. Put shortly:
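PC-3 cells serum-starved 3 h, treated 1 h with 8-point compound series (0.3% DMSO), then stimulated with 100 ng/mL human HGF for 10 min. Lysate phospho-Met (panTyr) measured by sandwich ELISA; IC50 from 4-parameter logistic fit against DMSO and reference-inhibitor controls.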

Our source for the IC50 values is patent US11542259B2, “Compounds for the treatment of kinase-dependent disorders” (Exelixis, Inc., priority 2018, dated 2023).

pIC50: −log10 of the molar value.

Chain of Met (P08581 25-1390): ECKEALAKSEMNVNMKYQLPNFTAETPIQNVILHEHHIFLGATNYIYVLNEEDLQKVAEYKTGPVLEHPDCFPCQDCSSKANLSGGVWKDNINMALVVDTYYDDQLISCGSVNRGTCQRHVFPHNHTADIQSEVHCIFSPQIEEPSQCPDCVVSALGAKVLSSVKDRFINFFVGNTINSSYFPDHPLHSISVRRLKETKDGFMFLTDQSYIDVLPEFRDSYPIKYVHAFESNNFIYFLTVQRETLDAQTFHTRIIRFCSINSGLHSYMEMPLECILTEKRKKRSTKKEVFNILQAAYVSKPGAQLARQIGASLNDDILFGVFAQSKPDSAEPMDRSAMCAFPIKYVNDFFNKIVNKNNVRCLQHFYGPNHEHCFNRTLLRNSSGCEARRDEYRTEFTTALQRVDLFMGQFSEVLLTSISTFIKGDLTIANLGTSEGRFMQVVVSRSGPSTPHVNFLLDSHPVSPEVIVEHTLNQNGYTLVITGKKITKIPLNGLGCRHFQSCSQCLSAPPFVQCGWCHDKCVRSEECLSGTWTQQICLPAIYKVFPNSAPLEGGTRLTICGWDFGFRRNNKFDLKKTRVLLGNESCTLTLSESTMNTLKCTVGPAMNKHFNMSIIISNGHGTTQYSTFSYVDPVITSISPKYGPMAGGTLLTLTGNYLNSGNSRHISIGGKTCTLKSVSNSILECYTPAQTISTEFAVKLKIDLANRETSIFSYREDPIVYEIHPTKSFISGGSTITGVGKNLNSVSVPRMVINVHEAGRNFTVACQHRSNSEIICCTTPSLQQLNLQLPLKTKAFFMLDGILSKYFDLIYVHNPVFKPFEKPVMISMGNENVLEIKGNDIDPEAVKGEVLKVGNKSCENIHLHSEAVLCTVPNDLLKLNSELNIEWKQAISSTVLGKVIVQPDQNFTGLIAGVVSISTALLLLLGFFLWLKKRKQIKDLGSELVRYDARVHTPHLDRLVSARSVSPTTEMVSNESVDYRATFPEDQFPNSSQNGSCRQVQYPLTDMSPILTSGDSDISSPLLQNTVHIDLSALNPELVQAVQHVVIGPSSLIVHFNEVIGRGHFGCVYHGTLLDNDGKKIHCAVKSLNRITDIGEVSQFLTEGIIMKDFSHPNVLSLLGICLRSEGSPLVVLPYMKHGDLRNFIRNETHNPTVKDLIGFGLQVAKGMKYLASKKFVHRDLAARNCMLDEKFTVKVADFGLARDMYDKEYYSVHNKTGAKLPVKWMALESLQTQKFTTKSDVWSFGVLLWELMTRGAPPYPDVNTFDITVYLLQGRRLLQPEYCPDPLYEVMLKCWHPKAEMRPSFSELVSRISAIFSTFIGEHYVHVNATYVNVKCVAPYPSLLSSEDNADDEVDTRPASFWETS
Chain of KDR (P35968 20-1356): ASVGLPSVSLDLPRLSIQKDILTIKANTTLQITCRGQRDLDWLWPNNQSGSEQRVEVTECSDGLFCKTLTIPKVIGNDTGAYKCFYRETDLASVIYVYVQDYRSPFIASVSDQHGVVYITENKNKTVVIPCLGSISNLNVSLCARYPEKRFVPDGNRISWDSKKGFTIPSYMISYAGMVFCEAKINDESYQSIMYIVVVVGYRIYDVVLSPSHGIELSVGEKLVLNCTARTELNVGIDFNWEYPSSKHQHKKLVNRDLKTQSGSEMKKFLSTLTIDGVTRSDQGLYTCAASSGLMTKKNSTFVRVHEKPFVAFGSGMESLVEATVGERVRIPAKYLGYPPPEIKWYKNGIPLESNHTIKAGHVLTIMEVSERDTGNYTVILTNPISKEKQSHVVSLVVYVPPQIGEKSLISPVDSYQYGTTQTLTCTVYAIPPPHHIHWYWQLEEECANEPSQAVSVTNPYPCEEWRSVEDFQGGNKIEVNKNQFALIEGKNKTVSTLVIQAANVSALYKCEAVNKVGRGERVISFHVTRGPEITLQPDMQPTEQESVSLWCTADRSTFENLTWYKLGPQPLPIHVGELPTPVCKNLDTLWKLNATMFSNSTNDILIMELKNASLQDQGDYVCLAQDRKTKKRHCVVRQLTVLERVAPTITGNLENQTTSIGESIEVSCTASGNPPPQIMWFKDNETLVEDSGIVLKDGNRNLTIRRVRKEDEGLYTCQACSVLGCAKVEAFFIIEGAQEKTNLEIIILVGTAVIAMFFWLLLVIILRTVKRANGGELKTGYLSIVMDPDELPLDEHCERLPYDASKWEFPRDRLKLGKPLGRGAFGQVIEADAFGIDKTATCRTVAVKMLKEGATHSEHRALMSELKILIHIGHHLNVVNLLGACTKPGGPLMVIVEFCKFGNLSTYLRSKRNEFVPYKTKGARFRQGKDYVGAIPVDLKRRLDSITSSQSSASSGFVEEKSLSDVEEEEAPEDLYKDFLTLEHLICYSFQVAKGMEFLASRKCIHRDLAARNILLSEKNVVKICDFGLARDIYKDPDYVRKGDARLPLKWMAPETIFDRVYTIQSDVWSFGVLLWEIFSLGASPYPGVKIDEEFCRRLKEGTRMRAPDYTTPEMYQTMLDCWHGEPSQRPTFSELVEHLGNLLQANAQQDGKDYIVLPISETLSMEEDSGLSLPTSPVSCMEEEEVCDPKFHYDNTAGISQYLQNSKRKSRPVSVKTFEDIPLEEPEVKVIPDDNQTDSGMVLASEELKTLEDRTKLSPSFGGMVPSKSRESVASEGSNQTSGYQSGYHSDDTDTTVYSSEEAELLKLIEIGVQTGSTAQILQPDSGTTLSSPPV
Chain of Human Mer (residues R557-E882 with H628Q and R794A) (Q12866 557-882, stated change not applied): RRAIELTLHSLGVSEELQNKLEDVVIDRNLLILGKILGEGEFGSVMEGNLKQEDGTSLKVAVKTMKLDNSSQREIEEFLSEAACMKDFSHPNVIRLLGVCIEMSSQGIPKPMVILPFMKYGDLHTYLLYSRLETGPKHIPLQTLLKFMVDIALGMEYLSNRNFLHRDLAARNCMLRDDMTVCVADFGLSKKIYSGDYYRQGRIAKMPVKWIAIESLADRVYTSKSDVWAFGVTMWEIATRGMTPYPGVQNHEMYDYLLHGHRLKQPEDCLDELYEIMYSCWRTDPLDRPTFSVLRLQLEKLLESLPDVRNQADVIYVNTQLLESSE

For the compound `CNC(=O)c1ccc2c(Oc3ccc(NC(=O)C4(C(=O)Nc5ccc(F)cc5)CC4)cc3)ccnc2c1` [Compound 165, 1-N′-(4-fluorophenyl)-1-N-[4-[7-(methylcarbamoyl)quinolin-4-yl]oxyphenyl]cyclopropane-1,1-dicarboxamide], the negative logarithm of the IC50 (pIC50) (in test [1]; in test [2]; against KDR; at Met) was at least 8.00 throughout.
On to `COc1cc2nccc(Oc3ccc(NC(=O)C4(C(=O)Nc5ccc(F)cc5)CC4)cc3)c2cc1-c1ccncc1` [Compound 202, 1-N′-(4-Fluorophenyl)-1-N-[4-(7-methoxy-6-pyridin-4-ylquinolin-4-yl)oxyphenyl]cyclopropane-1,1-dicarboxamide], for which the pIC50 – broadly, the negative decadic logarithm of the IC50, by convention in mol/L – in test [1] was at least 8.00; in test [2] it was at least 8.00; on KDR it was 7.00 to 8.00; at Met, 7.00 to 8.00.
Consider `COc1cc2nccc(Oc3ccc(NC(=O)C4(C(=O)Nc5ccc(F)cc5)CC4)cc3)c2cc1C(N)=O` [Compound 7, 1-N-[4-(6-carbamoyl-7-methoxyquinolin-4-yl)oxyphenyl]-1-N′-(4-fluorophenyl)cyclopropane-1,1-dicarboxamide], for which the pIC50 (in test [1]; in test [2]; at KDR; on Met) was at least 8.00 throughout.
`COc1cc2nccc(Oc3ccc(NC(=O)C4(C(=O)Nc5ccc(F)cc5)CC4)cc3)c2cc1-c1ccc[nH]1` [Compound 188, 1-N′-(4-fluorophenyl)-1-N-[4-[7-methoxy-6-(1H-pyrrol-2-yl)quinolin-4-yl]oxyphenyl]cyclopropane-1,1-dicarboxamide]: the pIC50 in test [1] was at least 8.00; in test [2], at least 8.00; against KDR, 7.00 to 8.00; at Met it was 7.00 to 8.00.
Regarding `CNC(=O)c1cc2nccc(Oc3ccc(NC(=O)C4(C(=O)Nc5ccc(F)cc5)CC4)cc3)c2cc1OC` [Compound 153, 1-N′-(4-fluorophenyl)-1-N-[4-[6-methoxy-7-(methylcarbamoyl)quinolin-4-yl]oxyphenyl]cyclopropane-1,1-dicarboxamide], the pIC50 in test [1] is at least 8.00; in test [2] it was 7.00 to 8.00; on KDR it was 7.00 to 8.00; on Met it was 6.52 to 7.00.
`CCNC(=O)c1cc2c(Oc3ccc(NC(=O)C4(C(=O)Nc5ccc(F)cc5)CC4)cc3)ccnc2cc1OC` [Compound 9, 1-N-[4-[6-(ethylcarbamoyl)-7-methoxyquinolin-4-yl]oxyphenyl]-1-N′-(4-fluorophenyl)cyclopropane-1,1-dicarboxamide]: the pIC50 at KDR is at least 8.00; at Met, 7.00 to 8.00.
For the compound `COc1cc2nccc(Oc3ccc(NC(=O)C4(C(=O)Nc5ccc(F)cc5)CC4)cc3)c2cc1N1CCC1` [Compound 198, 1-N-[4-[6-(azetidin-1-yl)-7-methoxyquinolin-4-yl]oxyphenyl]-1-N′-(4-fluorophenyl)cyclopropane-1,1-dicarboxamide], the pIC50 in test [1] was at least 8.00; in test [2], 7.00 to 8.00; at KDR, 7.00 to 8.00; on Met, 7.00 to 8.00.
As to `COc1cc2nccc(Oc3ccc(NC(=O)C4(C(=O)Nc5ccc(F)cc5)CC4)cc3F)c2cc1C(=O)O` [Compound 131, 4-[2-fluoro-4-[[1-[(4-fluorophenyl)carbamoyl]cyclopropanecarbonyl]amino]phenoxy]-7-methoxyquinoline-6-carboxylic acid], the pIC50 in test [1] is 7.00 to 8.00; in test [2], at least 8.00; at KDR it was below 6.52; at Met it was below 6.52.
For the compound `COc1cc2nccc(Oc3ccc(NC(=O)C4(C(=O)Nc5ccc(F)cc5)CC4)cc3)c2cc1C(=O)NC1CN(C)C1` [Compound 14, 1-N′-(4-fluorophenyl)-1-N-[4-[7-methoxy-6-[(1-methylazetidin-3-yl)carbamoyl]quinolin-4-yl]oxyphenyl]cyclopropane-1,1-dicarboxamide], the pIC50 in test [1] was at least 8.00; in test [2], at least 8.00; on KDR, 7.00 to 8.00; on Met it was at least 8.00.
As for `COc1cc2nccc(Oc3ccc(NC(=O)C4(C(=O)Nc5ccc(F)cc5)CC4)cc3)c2cc1C1(O)COC1` [Compound 196, 1-N′-(4-fluorophenyl)-1-N-[4-[6-(3-hydroxyoxetan-3-yl)-7-methoxyquinolin-4-yl]oxyphenyl]cyclopropane-1,1-dicarboxamide], the pIC50 in test [1] was at least 8.00; in test [2], at least 8.00; at KDR it was 7.00 to 8.00; on Met it was 7.00 to 8.00.
Turning to `COc1cc2nccc(Oc3ccc(NC(=O)C4(C(=O)Nc5ccc(F)cc5)CC4)cc3)c2cc1-c1ccc(C)o1` [Compound 180, 1-N′-(4-fluorophenyl)-1-N-[4-[7-methoxy-6-(5-methylfuran-2-yl)quinolin-4-yl]oxyphenyl]cyclopropane-1,1-dicarboxamide], the pIC50 was at least 8.00 in test [1], 7.00 to 8.00 in test [2], 7.00 to 8.00 on KDR and 7.00 to 8.00 at Met.
As for `NC(=O)c1ccc2c(Oc3ccc(NC(=O)C4(C(=O)Nc5ccc(F)cc5)CC4)cc3)ccnc2c1` [Compound 164, 1-N-[4-(7-carbamoylquinolin-4-yl)oxyphenyl]-1-N′-(4-fluorophenyl)cyclopropane-1,1-dicarboxamide], the pIC50 in test [1] is at least 8.00; in test [2], at least 8.00; on KDR, 7.00 to 8.00; on Met it was at least 8.00.
Turning to `COc1cc2nccc(Oc3ccc(NC(=O)C4(C(=O)Nc5ccc(F)cc5)CC4)cc3Cl)c2cc1C(=O)O` [Compound 130, 4-[2-chloro-4-[[1-[(4-fluorophenyl)carbamoyl]cyclopropanecarbonyl]amino]phenoxy]-7-methoxyquinoline-6-carboxylic acid], the pIC50 is 7.00 to 8.00 in test [1], 7.00 to 8.00 in test [2], below 6.52 at KDR and below 6.52 at Met.
Consider `COc1cc2nccc(Oc3ccc(NC(=O)C4(C(=O)Nc5ccc(F)cc5)CC4)cc3)c2cc1C1(O)CNC1` [Compound 197, 1-N′-(4-fluorophenyl)-1-N-[4-[6-(3-hydroxyazetidin-3-yl)-7-methoxyquinolin-4-yl]oxyphenyl]cyclopropane-1,1-dicarboxamide], for which the pIC50 in test [1] is at least 8.00; in test [2] it was at least 8.00; on KDR, below 6.52; at Met it was 6.52 to 7.00.
In the case of `COc1cc2nccc(Oc3ccc(NC(=O)C4(C(=O)Nc5ccc(F)cc5)CC4)cc3)c2cc1-c1cccc(C#N)c1F` [Compound 175, 1-N-[4-[6-(3-cyano-2-fluorophenyl)-7-methoxyquinolin-4-yl]oxyphenyl]-1-N′-(4-fluorophenyl)cyclopropane-1,1-dicarboxamide], the pIC50 in test [1] is at least 8.00; in test [2], 7.00 to 8.00; against KDR it was 6.52 to 7.00; at Met, 7.00 to 8.00.
For `CONC(=O)c1cc2c(Oc3ccc(NC(=O)C4(C(=O)Nc5ccc(F)cc5)CC4)cc3)ccnc2cc1OC` [Compound 17, 1-N′-(4-fluorophenyl)-1-N-[4-[7-methoxy-6-(methoxycarbamoyl)quinolin-4-yl]oxyphenyl]cyclopropane-1,1-dicarboxamide], the figures for the pIC50 at KDR and at Met were at least 8.00 and 7.00 to 8.00, respectively.
In the same order, the values of `COc1cc2nccc(Oc3ccc(NC(=O)C4(C(=O)Nc5ccc(F)cc5)CC4)cc3)c2cc1-c1ncc[nH]1` [Compound 191, 1-N′-(4-Fluorophenyl)-1-N-[4-[6-(1H-imidazol-2-yl)-7-methoxyquinolin-4-yl]oxyphenyl]cyclopropane-1,1-dicarboxamide] are at least 8.00 and 7.00 to 8.00.
